# Calls of active or inactive are those of the source.
# Key:
# Beta-galactosidase = Beta-galactosidase (Escherichia coli, UniProt Q8VNN2); experiment: Dose response counterscreen for EBI2 assay utilizing the enzyme, b-galactosidase.; assay type: functional
# cells [1] = assay type: functional, cell-based
# cells [2] = assay type: functional, cell-based; remark: listed apart in the source
# [3] = target: 1-phosphatidylinositol 4,5-bisphosphate phosphodiesterase gamma-1 (Homo sapiens, UniProt P19174); experiment: Counterscreen for inhibitors of phospholipase C isozymes (PLC-B3): Fluorescence-based biochemical high throughput dose response assay to identify inhibitors of phospholipase C isozymes (PLC-gamma1).
# [4] = target: 1-phosphatidylinositol 4,5-bisphosphate phosphodiesterase beta-3 (Homo sapiens, UniProt Q01970); experiment: Fluorescence-based biochemical high throughput dose response assay to identify inhibitors of phospholipase C isozymes (PLC-B3).
# [5] = target: T1, Heat shock factor protein 1 (Mus musculus, UniProt P38532); experiment: decrease of HSF1-responsive luciferase luminescence – cell-based, NIH3T3, dose retest, confirmation (AID 2382); assay type: functional;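 note: NIH3T3 fibroblasts with HSF1-driven luciferase reporter stressed by proteasome inhibitor MG132; luminescence from HSF1-driven luciferase expression after 8 hours of MG132 stress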
# T1 sequence (P38532 whole entry): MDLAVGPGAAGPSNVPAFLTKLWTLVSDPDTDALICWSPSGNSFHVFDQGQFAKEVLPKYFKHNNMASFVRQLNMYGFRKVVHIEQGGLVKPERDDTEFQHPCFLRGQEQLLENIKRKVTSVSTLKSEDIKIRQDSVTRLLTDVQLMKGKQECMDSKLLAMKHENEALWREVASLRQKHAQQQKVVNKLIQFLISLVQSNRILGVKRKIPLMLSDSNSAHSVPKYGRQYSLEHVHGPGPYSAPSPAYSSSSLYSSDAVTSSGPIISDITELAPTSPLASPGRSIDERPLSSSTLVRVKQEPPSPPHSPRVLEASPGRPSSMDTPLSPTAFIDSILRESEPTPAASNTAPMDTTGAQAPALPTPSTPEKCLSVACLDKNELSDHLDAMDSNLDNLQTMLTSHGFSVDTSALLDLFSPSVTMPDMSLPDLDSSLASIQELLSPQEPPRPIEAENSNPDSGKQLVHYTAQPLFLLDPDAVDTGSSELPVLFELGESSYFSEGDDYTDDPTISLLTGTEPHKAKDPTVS
# Vero = experiment: viability loss in Vero cells – cell-based, plate reader, cherry-pick samples, cytotoxicity control, dose response (AID 687020); assay type: functional; conditions: Chlorocebus sabaeus
# [6] = target: T2, Small ubiquitin-related modifier 1 (Homo sapiens, UniProt P63165); experiment: SUMO1 protein interaction blockers, potency – biochemical, fluorescence polarization, uHTS hits, dose response (AID 624382); assay type: functional; conditions: read-out: IC50_Mean
# [7] = target: T2, Small ubiquitin-related modifier 1; experiment: SUMO1 protein-protein binding blockers, potency – biochemical, FRET, dose response (AID 624383); assay type: functional; conditions: read-out: IC50_Mean
# [8] = target: Tyrosyl-DNA phosphodiesterase 2 (Homo sapiens, UniProt O95551); experiment: potency against TDP2 phosphodiesterase activity – biochemical, epi absorbance, IC50, dose response (AID 743297)
# [9] = activation of miR-122 Renilla sensor silencing – cell-based, Huh7 psiCHECK-miR122, Renilla luciferase, cherry-picked, dose response (AID 651956); assay type: functional;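 note: huh7 hepatoma cells stably carrying a psiCHECK-2 miR-122 sensor plasmid; renilla luciferase signal reporting endogenous miR-122 activity after 48 h compound exposure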
# [10] = general mammalian cell viability loss – inhibitor set, cherry-pick, set 2, cytotoxicity control for miR-122 modulator project, dose response (AID 720697); assay type: functional, cell-based
# [11] = target: T3, Rac GTPase-activating protein 1 (Homo sapiens, UniProt Q9H0H5); experiment: blockers of MgcRacGAP-driven Rac1 GTP hydrolysis – biochemical, ADP Hunter fluorescence, primary and confirmatory, confirmation (AID 624330); assay type: functional
# T3 sequence (Q9H0H5 whole entry): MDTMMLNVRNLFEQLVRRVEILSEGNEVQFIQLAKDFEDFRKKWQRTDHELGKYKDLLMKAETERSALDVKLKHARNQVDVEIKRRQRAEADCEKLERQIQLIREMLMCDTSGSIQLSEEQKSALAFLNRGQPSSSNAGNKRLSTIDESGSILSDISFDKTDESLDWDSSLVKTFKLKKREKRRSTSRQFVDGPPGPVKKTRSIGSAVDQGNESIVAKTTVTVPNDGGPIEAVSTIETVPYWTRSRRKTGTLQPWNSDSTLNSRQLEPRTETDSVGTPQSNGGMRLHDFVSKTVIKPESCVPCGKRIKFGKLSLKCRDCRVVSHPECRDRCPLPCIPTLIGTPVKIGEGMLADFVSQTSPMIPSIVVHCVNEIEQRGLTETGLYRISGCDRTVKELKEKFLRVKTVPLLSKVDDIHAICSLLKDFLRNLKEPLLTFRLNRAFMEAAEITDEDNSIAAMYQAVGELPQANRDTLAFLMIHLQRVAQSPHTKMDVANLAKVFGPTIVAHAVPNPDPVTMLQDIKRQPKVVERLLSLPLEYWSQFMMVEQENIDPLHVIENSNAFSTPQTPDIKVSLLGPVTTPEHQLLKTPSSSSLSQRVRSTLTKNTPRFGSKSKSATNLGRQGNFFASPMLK
# Paired box protein Pax-8 = Paired box protein Pax-8 (Homo sapiens, UniProt Q06710); experiment: PAX8 transcriptional activity inhibition in RMG-I – RMG-I cells, luciferase, cherry-pick, dose response (AID 687027); assay type: functional, cell-based;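 note: luciferase reporter driven by Pax8 target thyroperoxidase promoter measured by SteadyGlo luminescence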
# [12] = general cell-killing toxicity readout – plate reader, dry powder samples, cytotoxicity control for PAX8 inhibitor project, dose response (AID 743021); assay type: functional, cell-based
# [13] = cytotoxicity in MITF-independent A375 cells – cell-based, CellTiter-Glo luminescence, dry powder, set 4, counter-screen for MITF inhibitor project, dose response (AID 624364); assay type: functional; conditions: A-375;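 note: A375 melanoma cells are MITF independent so this is a counter screen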
# [14] = viability loss in MITF-independent A375 cells – cell-based, CellTiter-Glo luminescence, dry powder, set 2, counter-screen for MITF inhibitor project, dose response (AID 624489); assay type: functional; conditions: A-375;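 note: actives are compounds lowering A375 viability meaning general cytotoxicity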
# Large T antigen = Large T antigen (Simian virus 40, UniProt P03070); assay type: functional, Betapolyomavirus macacae;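 note: Confirmatory-stage PubChem screen for compounds that inhibit SV40 T antigen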
# [15] = target: T4, Mannose-6-phosphate isomerase (Homo sapiens, UniProt P34949); experiment: MPI inhibition at elevated mannose 6-phosphate – biochemical, fluorescence intensity, high mannose 6-phosphate, primary screen (AID 1220)
# T4 sequence (P34949 whole entry): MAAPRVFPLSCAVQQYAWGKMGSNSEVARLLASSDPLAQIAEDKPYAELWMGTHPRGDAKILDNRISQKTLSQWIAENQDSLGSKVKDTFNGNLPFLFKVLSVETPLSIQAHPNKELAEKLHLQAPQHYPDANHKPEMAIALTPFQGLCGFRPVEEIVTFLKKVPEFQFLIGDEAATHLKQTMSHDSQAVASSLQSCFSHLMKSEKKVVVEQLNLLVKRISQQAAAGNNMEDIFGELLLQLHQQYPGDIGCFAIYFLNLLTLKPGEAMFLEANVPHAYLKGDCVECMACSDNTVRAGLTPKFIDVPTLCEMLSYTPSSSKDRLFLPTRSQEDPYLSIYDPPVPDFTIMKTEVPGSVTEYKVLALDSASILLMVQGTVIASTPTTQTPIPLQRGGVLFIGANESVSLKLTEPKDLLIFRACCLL
# [16] = viability loss in HeLa cells – cytotoxicity control for MgcRacGAP inhibitor project, dose response (AID 624300); assay type: functional
# [17] = target: T5, Histone-lysine N-methyltransferase NSD2 (Homo sapiens, UniProt O96028); assay type: biochemical
# T5 sequence (O96028 whole entry): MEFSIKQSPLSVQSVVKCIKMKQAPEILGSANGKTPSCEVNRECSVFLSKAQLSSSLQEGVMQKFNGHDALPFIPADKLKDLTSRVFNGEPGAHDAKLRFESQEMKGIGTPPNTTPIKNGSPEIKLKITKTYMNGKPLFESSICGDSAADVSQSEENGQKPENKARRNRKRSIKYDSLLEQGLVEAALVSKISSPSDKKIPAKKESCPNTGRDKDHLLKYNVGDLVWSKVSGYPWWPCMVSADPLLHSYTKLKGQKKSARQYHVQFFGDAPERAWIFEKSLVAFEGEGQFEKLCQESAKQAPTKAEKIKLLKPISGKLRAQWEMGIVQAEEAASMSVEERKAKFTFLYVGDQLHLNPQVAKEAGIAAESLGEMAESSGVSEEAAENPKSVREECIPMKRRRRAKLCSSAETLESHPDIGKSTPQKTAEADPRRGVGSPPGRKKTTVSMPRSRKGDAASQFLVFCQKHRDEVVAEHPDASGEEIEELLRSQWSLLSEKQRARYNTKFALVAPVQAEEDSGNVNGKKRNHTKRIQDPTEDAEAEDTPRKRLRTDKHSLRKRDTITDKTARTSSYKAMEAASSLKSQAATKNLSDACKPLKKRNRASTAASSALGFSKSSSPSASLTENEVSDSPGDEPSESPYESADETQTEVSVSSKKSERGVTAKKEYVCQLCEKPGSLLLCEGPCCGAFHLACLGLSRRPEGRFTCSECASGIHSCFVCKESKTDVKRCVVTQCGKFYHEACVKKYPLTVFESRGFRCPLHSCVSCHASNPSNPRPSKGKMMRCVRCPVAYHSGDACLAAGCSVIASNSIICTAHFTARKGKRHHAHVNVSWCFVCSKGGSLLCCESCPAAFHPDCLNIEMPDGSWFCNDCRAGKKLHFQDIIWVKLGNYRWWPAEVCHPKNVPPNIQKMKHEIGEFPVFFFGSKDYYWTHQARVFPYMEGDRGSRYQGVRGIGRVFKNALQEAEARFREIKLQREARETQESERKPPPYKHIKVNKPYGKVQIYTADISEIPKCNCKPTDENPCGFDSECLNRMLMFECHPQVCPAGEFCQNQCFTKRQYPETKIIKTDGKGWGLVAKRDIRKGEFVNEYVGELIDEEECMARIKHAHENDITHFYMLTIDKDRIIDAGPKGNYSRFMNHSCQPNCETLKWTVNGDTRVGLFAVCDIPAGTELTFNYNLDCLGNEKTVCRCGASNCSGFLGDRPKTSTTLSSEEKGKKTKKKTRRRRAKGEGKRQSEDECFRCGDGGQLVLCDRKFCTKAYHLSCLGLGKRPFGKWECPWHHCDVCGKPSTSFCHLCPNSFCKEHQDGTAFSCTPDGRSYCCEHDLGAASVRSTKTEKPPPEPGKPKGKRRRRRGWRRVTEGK
# cells [18] = assay type: functional, cell-based; remark: listed apart in the source
# [19] = target: T6, Nuclear receptor subfamily 0 group B member 1 (Homo sapiens, UniProt P51843); assay type: functional, cell-based;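 note: HEK293T cells transfected with SF-1 and DAX-1 plus StAR promoter luciferase reporter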
# T6 sequence (P51843 whole entry): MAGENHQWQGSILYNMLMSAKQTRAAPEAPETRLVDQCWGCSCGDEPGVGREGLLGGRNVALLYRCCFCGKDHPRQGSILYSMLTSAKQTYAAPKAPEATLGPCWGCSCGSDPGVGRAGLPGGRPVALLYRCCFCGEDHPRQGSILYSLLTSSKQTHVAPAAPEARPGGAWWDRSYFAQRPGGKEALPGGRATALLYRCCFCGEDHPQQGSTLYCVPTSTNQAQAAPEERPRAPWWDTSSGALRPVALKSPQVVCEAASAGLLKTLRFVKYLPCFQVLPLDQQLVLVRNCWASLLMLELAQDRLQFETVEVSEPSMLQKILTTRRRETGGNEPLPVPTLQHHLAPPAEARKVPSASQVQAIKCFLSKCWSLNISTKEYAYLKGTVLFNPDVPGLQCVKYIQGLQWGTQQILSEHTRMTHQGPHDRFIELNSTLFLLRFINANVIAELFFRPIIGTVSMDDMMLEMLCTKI
# Cytochrome P450 2D6 = Cytochrome P450 2D6 (Homo sapiens, UniProt P10635);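 note: CYP2D6 member of a cytochrome P450 panel assay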
# Cytochrome P450 3A4 = Cytochrome P450 3A4 (Homo sapiens, UniProt P08684);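 note: CYP3A4 tested as one member of a cytochrome P450 panel screen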
# Cytochrome P450 2C9 = Cytochrome P450 2C9 (Homo sapiens, UniProt P11712)
# Chain of Beta-galactosidase (Q8VNN2 whole entry): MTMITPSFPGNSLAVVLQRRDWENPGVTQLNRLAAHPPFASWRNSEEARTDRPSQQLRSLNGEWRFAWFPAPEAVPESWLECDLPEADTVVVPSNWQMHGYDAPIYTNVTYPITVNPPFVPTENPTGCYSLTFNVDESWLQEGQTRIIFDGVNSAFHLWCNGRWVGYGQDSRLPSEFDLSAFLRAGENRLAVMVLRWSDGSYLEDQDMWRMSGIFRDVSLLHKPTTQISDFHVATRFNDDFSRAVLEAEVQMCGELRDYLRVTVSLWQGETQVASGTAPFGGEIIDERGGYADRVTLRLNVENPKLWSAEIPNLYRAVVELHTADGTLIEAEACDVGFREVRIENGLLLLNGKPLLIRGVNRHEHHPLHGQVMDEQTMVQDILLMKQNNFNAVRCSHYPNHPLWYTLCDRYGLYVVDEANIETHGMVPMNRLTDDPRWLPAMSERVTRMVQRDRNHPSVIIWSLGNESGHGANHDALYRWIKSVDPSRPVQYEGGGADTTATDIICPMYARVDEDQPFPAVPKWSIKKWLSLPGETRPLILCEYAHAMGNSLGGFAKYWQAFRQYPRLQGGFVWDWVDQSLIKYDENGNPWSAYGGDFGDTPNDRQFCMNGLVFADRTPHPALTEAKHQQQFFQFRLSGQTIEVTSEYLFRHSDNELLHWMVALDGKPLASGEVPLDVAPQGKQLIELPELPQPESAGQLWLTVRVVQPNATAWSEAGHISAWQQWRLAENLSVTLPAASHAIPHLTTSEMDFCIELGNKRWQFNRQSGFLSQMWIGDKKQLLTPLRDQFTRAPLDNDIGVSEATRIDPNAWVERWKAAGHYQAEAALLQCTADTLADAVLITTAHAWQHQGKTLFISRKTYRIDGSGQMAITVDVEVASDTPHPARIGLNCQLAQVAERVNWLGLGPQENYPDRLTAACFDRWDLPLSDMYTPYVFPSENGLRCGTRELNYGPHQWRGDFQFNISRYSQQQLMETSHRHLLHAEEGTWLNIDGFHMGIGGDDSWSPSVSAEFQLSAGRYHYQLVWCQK
# T2 sequence (P63165 whole entry): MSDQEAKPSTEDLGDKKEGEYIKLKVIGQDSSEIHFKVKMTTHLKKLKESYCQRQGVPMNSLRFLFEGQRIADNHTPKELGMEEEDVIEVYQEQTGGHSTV
# Chain of 1-phosphatidylinositol 4,5-bisphosphate phosphodiesterase gamma-1 (P19174 whole entry): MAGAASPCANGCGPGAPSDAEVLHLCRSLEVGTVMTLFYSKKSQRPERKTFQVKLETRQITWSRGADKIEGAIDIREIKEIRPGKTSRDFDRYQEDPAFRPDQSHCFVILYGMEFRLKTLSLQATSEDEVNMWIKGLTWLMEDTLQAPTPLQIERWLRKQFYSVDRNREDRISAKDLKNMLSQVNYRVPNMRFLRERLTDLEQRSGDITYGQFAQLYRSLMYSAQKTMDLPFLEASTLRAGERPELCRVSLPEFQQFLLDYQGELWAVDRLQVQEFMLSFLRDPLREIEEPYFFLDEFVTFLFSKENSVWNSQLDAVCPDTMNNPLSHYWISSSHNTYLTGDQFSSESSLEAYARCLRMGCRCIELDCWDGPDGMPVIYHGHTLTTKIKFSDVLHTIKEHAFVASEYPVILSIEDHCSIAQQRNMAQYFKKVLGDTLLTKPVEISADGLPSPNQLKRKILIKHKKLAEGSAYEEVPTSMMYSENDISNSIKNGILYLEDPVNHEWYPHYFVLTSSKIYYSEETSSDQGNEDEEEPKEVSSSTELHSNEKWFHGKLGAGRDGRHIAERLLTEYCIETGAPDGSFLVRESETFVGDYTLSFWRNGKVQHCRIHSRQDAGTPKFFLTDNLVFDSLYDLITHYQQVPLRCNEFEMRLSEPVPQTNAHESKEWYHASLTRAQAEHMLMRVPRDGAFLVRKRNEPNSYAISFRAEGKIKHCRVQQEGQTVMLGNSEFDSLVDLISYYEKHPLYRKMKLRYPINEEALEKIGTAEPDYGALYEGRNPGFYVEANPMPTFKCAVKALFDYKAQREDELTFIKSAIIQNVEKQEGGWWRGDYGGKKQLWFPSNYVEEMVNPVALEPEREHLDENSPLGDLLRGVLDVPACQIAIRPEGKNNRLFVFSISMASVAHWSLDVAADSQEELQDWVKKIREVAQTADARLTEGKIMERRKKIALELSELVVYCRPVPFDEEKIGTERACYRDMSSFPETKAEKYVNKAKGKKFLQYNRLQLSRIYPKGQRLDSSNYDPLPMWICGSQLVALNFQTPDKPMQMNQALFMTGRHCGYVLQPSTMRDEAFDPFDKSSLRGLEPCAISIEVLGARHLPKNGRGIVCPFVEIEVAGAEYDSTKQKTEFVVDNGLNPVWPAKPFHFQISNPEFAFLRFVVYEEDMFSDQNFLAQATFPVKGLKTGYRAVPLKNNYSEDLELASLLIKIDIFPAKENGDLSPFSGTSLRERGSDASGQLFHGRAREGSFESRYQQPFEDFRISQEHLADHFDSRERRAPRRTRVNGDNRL
# Chain of 1-phosphatidylinositol 4,5-bisphosphate phosphodiesterase beta-3 (Q01970 whole entry): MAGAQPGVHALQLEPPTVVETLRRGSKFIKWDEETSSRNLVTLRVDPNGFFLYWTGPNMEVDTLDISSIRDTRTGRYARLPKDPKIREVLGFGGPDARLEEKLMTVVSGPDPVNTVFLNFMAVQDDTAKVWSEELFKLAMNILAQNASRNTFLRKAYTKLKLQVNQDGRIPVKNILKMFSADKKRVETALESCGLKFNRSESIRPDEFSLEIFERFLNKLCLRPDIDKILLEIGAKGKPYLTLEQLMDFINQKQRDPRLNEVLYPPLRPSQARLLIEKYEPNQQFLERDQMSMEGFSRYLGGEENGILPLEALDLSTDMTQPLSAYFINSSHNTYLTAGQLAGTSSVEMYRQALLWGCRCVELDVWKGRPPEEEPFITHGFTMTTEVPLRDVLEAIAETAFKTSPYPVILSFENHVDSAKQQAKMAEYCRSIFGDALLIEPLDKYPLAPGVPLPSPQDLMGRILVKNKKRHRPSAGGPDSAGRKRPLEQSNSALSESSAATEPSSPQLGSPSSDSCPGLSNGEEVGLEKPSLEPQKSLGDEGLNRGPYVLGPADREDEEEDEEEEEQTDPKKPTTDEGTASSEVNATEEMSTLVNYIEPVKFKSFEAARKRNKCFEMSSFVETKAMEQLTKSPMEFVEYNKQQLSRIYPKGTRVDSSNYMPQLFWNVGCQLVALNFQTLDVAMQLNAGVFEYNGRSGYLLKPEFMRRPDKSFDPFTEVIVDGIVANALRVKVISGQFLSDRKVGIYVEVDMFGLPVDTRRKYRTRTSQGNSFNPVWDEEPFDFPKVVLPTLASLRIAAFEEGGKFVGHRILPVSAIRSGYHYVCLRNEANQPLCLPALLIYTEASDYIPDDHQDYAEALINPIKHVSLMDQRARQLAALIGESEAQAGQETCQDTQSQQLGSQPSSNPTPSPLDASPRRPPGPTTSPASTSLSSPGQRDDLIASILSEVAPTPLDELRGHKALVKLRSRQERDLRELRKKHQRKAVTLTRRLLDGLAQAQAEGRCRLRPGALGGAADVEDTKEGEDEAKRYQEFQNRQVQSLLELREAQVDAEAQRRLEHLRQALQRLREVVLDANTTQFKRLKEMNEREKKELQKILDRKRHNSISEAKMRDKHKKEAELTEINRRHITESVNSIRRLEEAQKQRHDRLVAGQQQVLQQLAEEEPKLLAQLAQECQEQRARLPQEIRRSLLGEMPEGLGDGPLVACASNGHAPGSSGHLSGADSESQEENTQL
# Chain of Paired box protein Pax-8 (Q06710 whole entry): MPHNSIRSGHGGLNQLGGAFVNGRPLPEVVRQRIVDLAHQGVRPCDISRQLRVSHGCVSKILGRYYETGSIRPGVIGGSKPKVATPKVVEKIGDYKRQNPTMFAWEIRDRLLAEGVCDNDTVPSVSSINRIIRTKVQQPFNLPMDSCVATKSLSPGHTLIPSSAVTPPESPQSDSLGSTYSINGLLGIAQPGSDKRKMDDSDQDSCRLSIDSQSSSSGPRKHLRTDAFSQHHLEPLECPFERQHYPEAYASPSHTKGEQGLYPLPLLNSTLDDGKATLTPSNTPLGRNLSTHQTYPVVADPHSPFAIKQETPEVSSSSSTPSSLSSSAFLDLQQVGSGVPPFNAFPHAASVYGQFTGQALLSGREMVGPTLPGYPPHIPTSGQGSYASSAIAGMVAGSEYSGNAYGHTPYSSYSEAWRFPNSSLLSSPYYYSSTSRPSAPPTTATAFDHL
# Chain of Large T antigen (P03070 whole entry): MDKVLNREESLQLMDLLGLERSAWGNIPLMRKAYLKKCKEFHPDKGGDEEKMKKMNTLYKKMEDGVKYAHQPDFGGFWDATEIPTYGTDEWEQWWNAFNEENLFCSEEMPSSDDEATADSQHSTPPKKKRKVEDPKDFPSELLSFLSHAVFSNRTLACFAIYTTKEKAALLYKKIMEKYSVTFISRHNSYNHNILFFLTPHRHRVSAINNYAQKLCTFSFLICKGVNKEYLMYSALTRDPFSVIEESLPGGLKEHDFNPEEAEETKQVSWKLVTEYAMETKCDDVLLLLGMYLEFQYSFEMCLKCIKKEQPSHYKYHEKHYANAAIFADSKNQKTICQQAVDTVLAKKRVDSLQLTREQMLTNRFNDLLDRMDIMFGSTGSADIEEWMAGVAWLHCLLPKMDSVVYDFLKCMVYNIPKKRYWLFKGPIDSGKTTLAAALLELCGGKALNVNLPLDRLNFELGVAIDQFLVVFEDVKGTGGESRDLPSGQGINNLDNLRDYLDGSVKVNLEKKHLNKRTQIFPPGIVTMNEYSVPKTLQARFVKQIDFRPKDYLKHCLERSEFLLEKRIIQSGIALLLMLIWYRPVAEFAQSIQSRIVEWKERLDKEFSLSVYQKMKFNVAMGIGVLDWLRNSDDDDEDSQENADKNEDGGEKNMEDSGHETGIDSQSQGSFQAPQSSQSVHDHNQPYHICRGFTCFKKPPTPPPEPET
compound,measurement,setting,value
CCOC(=O)N1CCN(C(=O)c2cc3cc(Cl)ccc3[nH]2)CC1,IC50,Beta-galactosidase,> 80 µM (inactive)
COc1ccc(OCC(=O)N2CCc3ccccc3C2)cc1,IC50,cells [1],> 29.9 µM (inactive)
same,EC50,cells [2],> 29.9 µM (inactive)
CCN1CCN(C(=O)/C=C/c2ccc(OC)cc2)CC1,IC50,Beta-galactosidase,> 80 µM (inactive)
COc1ccc(CS(=O)(=O)c2nnc[nH]2)cc1,IC50,[3],15.5 µM (inactive)
same,IC50,[4],> 123 µM (inactive)
CCOC(=O)c1cc(S(=O)(=O)N2CCc3ccccc32)cn1C,EC50,[5],> 195 µM (not active)
same,AC50,Vero,17.9 µM (active)
COc1cc(NS(=O)(=O)c2ccc(NC(=O)CN3C(=O)c4ccccc4C3=O)cc2)nc(OC)n1,IC50,[3],> 122 µM (inactive)
same,IC50,[4],> 122 µM (inactive)
COc1ccc(C(=O)NCCNc2nc3c(C)cccc3cc2C#N)cc1OC,AC50,Vero,25.7 µM (active)
CCC(CO)Oc1cc(NC(=O)c2cccc(OC)c2)c2ncn(C(C)C)c2c1 (centres undefined),IC50,[6],> 66.6 µM (inactive)
same,IC50,[7],12.7 µM (active)
same,IC50,[8],36.6 µM (inactive)
CNc1nc(NCCOc2ccccc2)c2sccc2n1,AC50,[9],38.3 µM (active)
same,AC50,[10],4.2 µM (active)
CC1NC(C)c2c(ccc3ccccc23)O1 (centres undefined),IC50,[11],114 µM (active)
same,IC50,cells [1],> 29.9 µM (inactive)
same,EC50,cells [2],> 29.9 µM (inactive)
CCNC(=O)C[C@@H]1CC[C@@H]2[C@H](COc3ccc(NC(=O)Nc4cccc(Cl)c4)cc3C(=O)N2C)O1,AC50,[9],4.02 µM (active)
same,AC50,[10],< 0.195 µM (active)
COC(=O)C1=C(C)N(Cc2ccc(C(F)(F)F)cc2)C(NCc2ccccc2)=NC1c1cccc(F)c1 (centres undefined),AC50,Paired box protein Pax-8,26.8 µM (active)
same,AC50,[12],23.4 µM (active)
C=CCNC1=C(N2CCSCC2)C(=O)c2ccccc2C1=O,AC50,[13],24.3 µM (active)
same,AC50,[14],8.56 µM (active)
Oc1ccc(/C=N/Nc2cc(N3CCOCC3)nc(N3CCOCC3)n2)cc1O,IC50,Large T antigen,23.1 µM (active)
same,IC50,[15],28.9 µM (active)
same,CC50,[16],100 µM (active)
same,IC50,[11],52.1 µM (active)
same,AC50,[17],7.86 µM (active)
CC(=O)NC1=C(c2ccc(Cl)cc2)C(=O)c2ccccc2C1=O,AC50,[13],12.4 µM (active)
same,AC50,[14],9.22 µM (active)
O=c1cc(-c2ccccc2)oc2cc(O)cc(O)c12 [CHRYSIN],IC50,cells [18],> 67.6 µM (inactive)
same,IC50,[19],> 67.6 µM (inactive)
same,AC50,Cytochrome P450 2D6,12.6 µM (inconclusive)
same,AC50,Cytochrome P450 3A4,3.16 µM (inconclusive)
same,AC50,Cytochrome P450 2C9,5.01 µM (inconclusive)
O=C1Cc2c([nH]c3ccc(Br)cc23)-c2ccccc2N1 [KENPAULLONE],IC50,cells [18],> 67.5 µM (inactive)
same,IC50,[19],> 0.834 µM (active)
